{
  "source": "patent US20200367756A1",
  "about": "“METHOD AND SYSTEM FOR IN VIVO DETECTION OF ADIPOSE TISSUE BROWNING” (Agency for Science, Technology and Research, priority 2018, published 2020)",
  "key": {"Ucp1 [1]": {"tested_on": "Ucp1", "test": "UCP1 immunohistochemistry (IHC) of WAT and BAT of treated mice", "type": "in vivo, BALB/c nude mice", "procedure": "(§1) Mice (n=4; each group) were injected daily with either CL 316, 243 hydrate (1 mg/kg body weight intraperitoneally in test group (CL) or equal volume of saline in control (C) group animals for 7 days. After the in vivo DRS experiment, the mice was euthanized and fresh WAT tissues in control (C) and CL group were extracted and immediately frozen for RNA and protein expression analyses. WAT from the inguinal region and BAT from the interscapular region were stored in 10% normal buffered formalin (NBF) for hematoxylin and eosin (H&E) staining and Immunohistochemistry (IHC). BAT tissues extracted from mice injected with saline is marked as C BAT while BAT from CL injected mice as CL BAT. Similarly, WAT and beige refer to the WATs in saline (control) and CL injected group, respectively.\n(§2) In various example embodiments, H&E staining and UCP1 IHC were performed by the Advanced Molecular Pathology Laboratory (AMPL) at the Institute of Molecular and Cell Biology (IMCB), A*STAR, according to standard operating procedures. 1:50 dilution of UCP1 antibody (Abcam) at pH 6.0 was used for UCP1 IHC. All the images were obtained by using Olympus microscope equipped with DS-L3+Filc camera with a ×20 objective lens. Software ImageJ was used to analyse the images."}, "WAT and BAT adipocytes": {"tested_on": "WAT and BAT adipocytes", "test": "H&E staining of WAT and BAT of treated mice", "type": "in vivo, BALB/c nude mice", "procedure": "as §1, §2"}, "[2]": {"tested_on": "WAT (browning of white adipose tissue)", "test": "In vivo DRS measurement of lipid fraction (browning marker) in adipose tissue", "parameters": "species or system BALB/c nude mice", "text": "In particular, FIG. 5 depicts a schematic drawing of an example setup of in vivo DRS measurement system 500 for obtaining (e.g., generating or measuring) diffuse reflectance spectrum information (raw diffuse reflectance spectrum information) in a mouse model with partial skin incision using DRS spectroscopy in the NIR II optical window. In this regard, browning was induced in mice for 7 days by β-adrenergic administration followed by DRS measurement in the 1050 to 1350 nm range using an excitation-collection fiber probe 506 with source-detector fiber separations 508 configured to achieve a desired or sufficient depth of interrogation. The measured diffuse reflectance spectrum information obtained at the adipose tissue site was then processed according to various example embodiments to extract or derive water and lipid chromophore fractions (or water and lipid proportions or ratios) at the adipose tissue site in the 1050 nm to 1350 nm wavelength range. The water and lipid chromophore fractions were estimated from the measured DRS spectra by employing a lookup table (LUT) based on inverse Monte-Carlo modelling. In other words, the measured DRS spectra at the adipose tissue site is spectrally unmixed particularly for water and lipid chromophores using the Monte-Carlo based LUT within the wavelength range of 1050 nm to 1400 nm, or more preferably, 1050 nm to 1350 nm. […]"}, "Ucp1 [3]": {"tested_on": "Ucp1", "test": "Real-Time qPCR of Ucp1 mRNA in adipose tissues of treated mice", "type": "in vivo, BALB/c nude mice", "details": "normalized to Gapdh mRNA", "procedure": "as §1\nIn various example embodiments, total RNA was extracted with the RNeasy Lipid Tissue Mini Kit (Qiagen, Hilden, Germany) according to the manufacturer's instruction and Real-Time PCR was conducted using UCP1 primer pair UCP1_F: 5′-GGCCTCTACGACTCAGTCCA-3′ and UCP1_R: 5′-TAAGCCGGCTGAGATCTTGT-3′. GAPDH was used to normalize the relative mRNA expression by using a primer pair GAPDH_F: 5′-CAA GGT CAT CCA CTT-3′ and GAPDH_R: 5′-GGC CAT CCA CAG TCT GG-3′. The results are represented as mean±SE (n=4 in each group)."}, "Ucp1 [4]": {"tested_on": "Ucp1", "test": "Western blot analysis of UCP1 protein in adipose tissues of treated mice", "type": "in vivo, BALB/c nude mice", "details": "loading control β-ACTIN, vs saline WAT, hydrate", "procedure": "as §1\nIn various example embodiments, total protein lysates isolation from adipose tissues extracted from mice administered with either saline or CL (n=4, each group) was done in RadioImmunoPrecipitation Assay (RIPA) lysis buffer and quantified using the Biorad assay. Equal volume of proteins were loaded onto 10% Sodium Dodecyl Sulfate-Polyacrylamide Gel Electrophoresis (SDS-PAGE) followed by transfer to the PolyVinyliDene Fluoride (PVDF) membrane. […]"}, "[5]": {"details": "inguinal WAT, vs saline control WAT, hydrate"}, "[6]": {"details": "interscapular BAT, CL vs saline"}},
  "note": "Entries after “also recorded” stand apart in the source; their conditions may differ.",
  "data": [
    {"compound": "C[C@H](Cc1ccc2c(c1)OC(C(=O)[O-])(C(=O)[O-])O2)NC[C@H](O)c1cccc(Cl)c1.[Na+].[Na+]", "note": "[CL, CL 316, 243 hydrate]", "values": [
      {"measurement": "UCP1 IHC signal in WAT (beige)", "setting": "Ucp1 [1]; [5]", "result": "significant emergence of UCP1 expression; also recorded: increased UCP1 staining"},
      {"measurement": "UCP1 IHC signal in BAT", "setting": "Ucp1 [1]; [6]", "result": "not changed"},
      {"measurement": "adipocyte morphology in WAT (beige), H&E staining", "setting": "WAT and BAT adipocytes; [5]", "result": "subpopulation of multilocular adipocytes are emerging"},
      {"measurement": "adipocyte appearance in BAT, H&E staining", "setting": "WAT and BAT adipocytes; [6]", "result": "appearance was not changed"},
      {"measurement": "lipid fraction (SLW) of beige adipose tissue (CL treated WAT)", "setting": "[2]; mice, 1 mg/kg intraperitoneally daily for 7 days, DRS 1050 to 1350 nm, MCLUT unmixing, control WAT 0.70±0.095, BAT 0.518±0.112", "result": "0.628±0.076", "unit": "a.u."},
      {"measurement": "extent of WAT browning indicated by calculated SLW", "setting": "[2]; over a period of 7 days, CL treated animals", "result": "about 50%"},
      {"measurement": "Ucp1 mRNA expression in BAT", "setting": "Ucp1 [3]; BAT (CL) vs BAT (C)", "result": "did not significantly change"},
      {"measurement": "Ucp1 mRNA expression in WAT (beige) relative to saline control (WAT)", "setting": "Ucp1 [3]; 1 mg/kg i.p. daily, 7 days", "result": "significantly enhanced"},
      {"measurement": "UCP1 protein expression in WAT (beige)", "setting": "Ucp1 [4]", "result": "significantly induced; also recorded: higher expression"}
    ]}
  ]
}
